Tests used:
Assay in all cases: PubChem AID 652108
Details in all cases: mouse tail flick latency, kappa agonist-induced antinociception
[1] = tested on: 1 hour
[2] = tested on: 1 week
[3] = tested on: 24 hours

COC(=O)c1cc(Br)cnc1N1CCC(NC2CCCCC2)C(O)C1 (configuration not stated)
tail flick latency [1]: 8.07 s | tail flick latency ([1]; baseline latency at 0 min): 4.68 s | tail flick latency ([1]; latency at 30 min): 6.04 s | tail flick latency ([1]; latency at 60 min): 4.2 s | tail flick latency [2]: 12 s | tail flick latency ([2]; baseline latency at 0 min): 3.47 s | tail flick latency ([2]; latency at 30 min): 8.5 s | tail flick latency ([2]; latency at 60 min): 3.25 s | tail flick latency [3]: 13.4 s | tail flick latency ([3]; baseline latency at 0 min): 4.23 s | tail flick latency ([3]; latency at 30 min): 9.11 s | tail flick latency ([3]; latency at 60 min): 5.2 s
